Source: DBAASP
≈ marks a conversion by molar mass, not a printed value. Where “and” joins values, the source holds several entries; their conditions need not be identical. Equal entries are not always repeated.

Tests used:
Assay in all cases: ≥ marks a high value that may be exact or a test limit, other limits are often not marked, values filed in µg/mL are converted to µM
Escherichia coli 1 = test system: Escherichia coli 1
Escherichia coli = test system: Escherichia coli
Pseudomonas aeruginosa 1 = test system: Pseudomonas aeruginosa 1
Pseudomonas aeruginosa = test system: Pseudomonas aeruginosa
[1] = test system: Escherichia coli NCTC 10418
[2] = test system: Microsporum canis MW768151
Microsporum canis = test system: Microsporum canis
Proteus mirabilis = test system: Proteus mirabilis
[3] = test system: Pseudomonas aeruginosa ATCC 27853
[4] = test system: Staphylococcus aureus ATCC 43300
[5] = test system: Staphylococcus aureus NCTC 10788
[6] = test system: Staphylococcus aureus NCTC 12493
Staphylococcus aureus = test system: Staphylococcus aureus
[7] = test system: Staphylococcus cohnii MW767053
[8] = test system: Staphylococcus haemolyticus
[9] = test system: Staphylococcus pseudintermedius MW767056
[10] = test system: Staphylococcus pseudintermedius
Staphylococcus sciuri = test system: Staphylococcus sciuri
Staphylococcus simulans = test system: Staphylococcus simulans
[11] = test system: Trichophyton mentagrophytes
[12] = test system: Bacillus subtilis KCTC 3068
[13] = test system: Enterococcus faecalis ATCC 51575
[14] = test system: Enterococcus faecalis KCCM 29212
[15] = test system: Enterococcus faecium ATCC 51559
[16] = test system: Enterococcus faecium KCCM 12118
[17] = test system: Escherichia coli KCTC 1682
[18] = test system: Pseudomonas aeruginosa KCTC 1637
[19] = test system: Salmonella typhimurium KCTC 1926
[20] = test system: Staphylococcus aureus KCCM 40510
[21] = test system: Staphylococcus aureus KCTC 1621
[22] = test system: Staphylococcus epidermidis KCTC 1917
Bacillus thuringiensis = test system: Bacillus thuringiensis
Pseudomonas tolaasii = test system: Pseudomonas tolaasii
Ralstonia solanacearum = test system: Ralstonia solanacearum
[23] = test system: Enterococcus faecalis ATCC 29212
Escherichia coli 1057 = test system: Escherichia coli 1057
Escherichia coli 214 = test system: Escherichia coli 214
[24] = test system: Escherichia coli BL21(DE3)
Escherichia coli C600 = test system: Escherichia coli C600
[25] = test system: Staphylococcus aureus 5118
[26] = test system: Staphylococcus aureus ATCC 9144
[27] = test system: Staphylococcus aureus E4049
Escherichia coli D31 = test system: Escherichia coli D31
[28] = test system: Escherichia coli DH5alpha
Micrococcus luteus A270 = test system: Micrococcus luteus A270
[29] = test system: Salmonella enterica subsp. arizonae ATCC 13314
[30] = test system: Staphylococcus aureus ATCC 29213
[31] = test system: Staphylococcus epidermidis ATCC 12228

With `CC[C@H](C)[C@H](NC(=O)[C@@H](NC(=O)[C@@H]1CCCN1C(=O)[C@H](CO)NC(=O)[C@@H]1CSSC[C@H](NC(=O)[C@H](CCCCN)NC(=O)[C@H](CCCCN)NC(=O)CNC(=O)CNC(=O)CNC(=O)CN)C(=O)N[C@@H](CCCCN)C(=O)N[C@@H](CCCCN)C(=O)N[C@@H](CC(C)C)C(=O)N[C@@H](Cc2ccccc2)C(=O)N[C@@H](CCCCN)C(=O)N[C@@H](CCCCN)C(=O)N1)C(C)C)C(=O)N1CCC[C@H]1C(=O)N[C@@H](CC(C)C)C(=O)N[C@@H](CC(C)C)C(=O)N[C@@H](Cc1cnc[nH]1)C(=O)N[C@@H](CC(C)C)C(=O)NCC(=O)O` [GGGGKKCKKLFKKCSPVIPLLHLG] the MIC (Escherichia coli 1) was 2.7 µM (≈ 6.77 µg/mL), the MIC (Escherichia coli) was 1.3 µM (≈ 3.26 µg/mL) and the MIC (Pseudomonas aeruginosa 1) was 27 µM (≈ 67.7 µg/mL). For the same molecule, the MIC (Pseudomonas aeruginosa) was 16 µM (≈ 40.1 µg/mL).

In the case of `CC[C@H](C)[C@H](NC(=O)CNC(=O)[C@H](CO)NC(=O)[C@H](CC(C)C)NC(=O)[C@H](CC(C)C)NC(=O)CN)C(=O)N[C@@H](CC(C)C)C(=O)NCC(=O)N[C@@H](C)C(=O)NCC(=O)N[C@@H](CCCCN)C(=O)N[C@@H](CCCCN)C(=O)N[C@H](C(=O)N[C@H](C(=O)N[C@@H](Cc1ccccc1)C(N)=O)C(C)C)[C@@H](C)CC` [GLLSGILGAGKKIVF], the MIC [1] is reported as 7.99 µM (≈ 11.8 µg/mL), the MIC [2] is reported as 0.679 µM (≈ 0.999 µg/mL) and the MIC (Microsporum canis) is reported as 1.92 µM (≈ 2.83 µg/mL). The MIC (Proteus mirabilis) was no less than 43.5 µM, the MIC [3] was 2 µM (≈ 2.94 µg/mL) and the MIC [4] was 0.998 µM (≈ 1.47 µg/mL). It also gave an MIC [5] of 2 µM (≈ 2.94 µg/mL), an MIC [6] of 4 µM (≈ 5.89 µg/mL) and an MIC (Staphylococcus aureus) of 0.998 µM (≈ 1.47 µg/mL). For the same molecule, the MIC [7] was no less than 86.9 µM, the MIC [8] was no less than 43.5 µM and the MIC [9] was no less than 174 µM. For the same molecule, the MIC [10] was no less than 61.5 µM, the MIC (Staphylococcus sciuri) was no less than 174 µM and the MIC (Staphylococcus simulans) was 10.9 µM (≈ 16 µg/mL). The MIC [11] was 1.36 µM (≈ 2 µg/mL).

`CC[C@H](C)[C@H](NC(=O)[C@H](CCCN=C(N)N)NC(=O)[C@H](CC(C)C)NC(=O)[C@@H](N)CC(C)C)C(=O)N[C@@H](C)C(=O)N[C@@H](CC(C)C)C(=O)N[C@@H](CCCN=C(N)N)C(=O)N[C@@H](CCCCN)C(=O)N[C@@H](CCCCN)C(N)=O` [LLRIALRKK] showed an MIC [12] of 14.4 µM (≈ 16 µg/mL), an MIC [13] of no less than 57.6 µM and an MIC [14] of 28.8 µM (≈ 32 µg/mL). It also gave an MIC [15] of 7.2 µM (≈ 7.99 µg/mL), an MIC [16] of 28.8 µM (≈ 32 µg/mL) and an MIC [17] of 3.6 µM (≈ 4 µg/mL). For the same molecule, the MIC [18] was 7.2 µM (≈ 7.99 µg/mL), the MIC [19] was 7.2 µM (≈ 7.99 µg/mL) and the MIC [20] was 14.4 µM (≈ 16 µg/mL). The MIC [21] was 28.8 µM (≈ 32 µg/mL) and the MIC [22] was 3.6 µM (≈ 4 µg/mL).

`CC[C@H](C)[C@H](NC(=O)[C@H](CCCCN)NC(=O)CNC(=O)[C@H](CC(C)C)NC(=O)[C@@H](NC(=O)[C@H](CCCCN)NC(=O)[C@H](CCCCN)NC(=O)[C@H](CC(C)C)NC(=O)[C@H](CC(N)=O)NC(=O)[C@@H](N)CC(C)C)[C@@H](C)CC)C(=O)NCC(=O)N[C@H](C(=O)N[C@@H](CCSC)C(=O)N[C@@H](CC(C)C)C(=O)N[C@@H](CO)C(=O)N[C@@H](Cc1cnc[nH]1)C(=O)N[C@@H](CC(C)C)C(=O)N[C@@H](CC(N)=O)C(=O)O)C(C)C` [LNLKKILGKIGVMLSHLN] was tested, and the MIC (Bacillus thuringiensis) was 1.46 µM (≈ 2.9 µg/mL), the MIC (Escherichia coli) was 0.402 µM (≈ 0.8 µg/mL) and the MIC (Pseudomonas tolaasii) was 1.36 µM (≈ 2.7 µg/mL). The MIC (Ralstonia solanacearum) was 1.05 µM (≈ 2.1 µg/mL).

In the case of `CC(C)C[C@H](NC(=O)[C@H](CCCN=C(N)N)NC(=O)[C@@H](N)CCCN=C(N)N)C(=O)N[C@@H](CCCN=C(N)N)C(=O)N1CCC[C@H]1C(=O)N[C@@H](CCCN=C(N)N)C(=O)N[C@@H](CCCN=C(N)N)C(=O)N1CCC[C@H]1C(=O)N[C@@H](CCCN=C(N)N)C(=O)N[C@@H](CC(C)C)C(=O)N1CCC[C@H]1C(=O)N[C@@H](CCCN=C(N)N)C(=O)N1CCC[C@H]1C(=O)N[C@@H](CCCN=C(N)N)C(=O)N1CCC[C@H]1C(=O)N[C@@H](CCCN=C(N)N)C(=O)N1CCC[C@H]1C(=O)N[C@@H](CCCN=C(N)N)C(=O)N1CCC[C@H]1C(=O)N[C@@H](CCCN=C(N)N)C(=O)N1CCC[C@H]1C(=O)N[C@@H](CCCN=C(N)N)C(=O)O` [RRLRPRRPRLPRPRPRPRPRPR], the MIC [23] is reported as greater than 32 µM, the MIC (Escherichia coli 1057) is reported as 10 µM and 8 µM and the MIC (Escherichia coli 214) is reported as no less than 64 µM. For the same molecule, the MIC [24] was 8 µM (≈ 23.2 µg/mL) and the MIC (Escherichia coli C600) was 2 µM and 4 µM.

Work on `CC[C@H](C)[C@H](NC(=O)[C@H](CC(C)C)NC(=O)CNC(=O)[C@H](CCSC)NC(=O)[C@@H](NC(=O)[C@H](CC(C)C)NC(=O)[C@H](CCC(N)=O)NC(=O)CNC(=O)[C@H](Cc1ccccc1)NC(=O)[C@@H](NC(=O)[C@@H](N)CO)C(C)C)C(C)C)C(=O)N[C@@H](CC(C)C)C(=O)N[C@@H](CO)C(=O)N[C@@H](CO)C(=O)N[C@H](C(=O)N[C@@H](Cc1ccccc1)C(=O)N[C@@H](Cc1ccc(O)cc1)C(=O)N[C@@H](CC(N)=O)C(=O)N[C@@H](CC(=O)O)C(=O)N[C@@H](CC(=O)O)C(=O)O)C(C)C` [SVFGQLVMGLILSSVFYNDD] yielded an MIC [25] of 1.81 µM (≈ 4 µg/mL), an MIC [26] of 15.9 µM (≈ 35 µg/mL) and an MIC [27] of no less than 250 µM.

`CC[C@H](C)[C@H](NC(=O)[C@H](CCC(N)=O)NC(=O)[C@@H](NC(=O)CNC(=O)[C@@H](NC(=O)[C@H](CC(C)C)NC(=O)[C@H](CC(C)C)NC(=O)[C@H](Cc1ccccc1)NC(=O)[C@@H]1CCCN1C(=O)[C@@H](N)[C@@H](C)O)C(C)C)[C@@H](C)O)C(=O)N[C@@H](CC(=O)O)C(=O)N[C@@H](CC(C)C)C(=O)N[C@@H](CCCN=C(N)N)C(=O)O` [TPFLLVGTQIDLR] gave an MIC (Escherichia coli D31) of 2.4 µM (≈ 3.53 µg/mL), an MIC [28] of 2.4 µM (≈ 3.53 µg/mL) and an MIC (Micrococcus luteus A270) of 4.7 µM (≈ 6.92 µg/mL). It also gave an MIC [3] of 4.7 µM (≈ 6.92 µg/mL), an MIC [29] of 2.4 µM (≈ 3.53 µg/mL) and an MIC [30] of 1.2 µM (≈ 1.77 µg/mL). For the same molecule, the MIC [31] was 1.2 µM (≈ 1.77 µg/mL).
